Source: the supplement of paper PMC4862054

Legend:
Details in all cases: incubation time: 72 h
BT-474 [1] = experiment: normalised response (% of control), CellTox Green; higher = less cell death (100 = DMSO, 0 = benzethonium chloride kill control)
Procedure, shortened: (§1)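 Breast cancer cell lines in 20 µl suspension were added to 384-well plates containing compound at 5 concentrations, spaced in 10-fold steps across a 10,000-fold range chosen for each compound, and incubated for 72 h. CellTox Green fluorescence was read at 485/520 nm, followed by CellTiter-Glo luminescence after 10 min at room temperature. Signals on each plate were normalised so that 0.1 % DMSO equals 100 and a positive kill control equals 0. Every value in the table is the normalised signal at one concentration of the series.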

BT-549 [2] = experiment: as above
Procedure, shortened: as §1

CAL-120 [3] = experiment: as above
Procedure, shortened: as §1

CAL-51 [4] = experiment: as above
Procedure, shortened: as §1

CAL-85-1 [5] = experiment: as above
Procedure, shortened: as §1

DU-4475 [6] = experiment: as above
Procedure, shortened: as §1

HCC1143 [7] = experiment: as above
Procedure, shortened: as §1

HCC1599 [8] = experiment: as above
Procedure, shortened: as §1

HCC1937 [9] = experiment: as above
Procedure, shortened: as §1

HDQ-P1 [10] = experiment: as above
Procedure, shortened: as §1

Hs578T [11] = experiment: as above
Procedure, shortened: as §1

MCF-10A [12] = experiment: as above
Procedure, shortened: as §1

MDA-MB-231 [13] = experiment: as above
Procedure, shortened: as §1

MDA-MB-436 [14] = experiment: as above
Procedure, shortened: as §1

MDA-MB-453 [15] = experiment: as above
Procedure, shortened: as §1

MDA-MB-468 [16] = experiment: as above
Procedure, shortened: as §1

MFM-223 [17] = experiment: as above
Procedure, shortened: as §1

BT-474 [18] = experiment: normalised response (% of control), CellTiter-Glo; higher = more viable cells (100 = DMSO, 0 = benzethonium chloride kill control)
Protocol: (§2)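 DSRT, 72 h incubation, CellTox Green / CellTiter-Glo readout. Signal is normalised to DMSO and benzethonium chloride controls. Value is the normalised response at dose 3.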

BT-549 [19] = experiment: as above
Protocol: as §2

CAL-120 [20] = experiment: as above
Protocol: as §2

CAL-148 [21] = experiment: as above
Protocol: as §2

CAL-51 [22] = experiment: as above
Protocol: as §2

CAL-85-1 [23] = experiment: as above
Protocol: as §2

DU-4475 [24] = experiment: as above
Protocol: as §2

HCC1143 [25] = experiment: as above
Protocol: as §2

HCC1599 [26] = experiment: as above
Protocol: as §2

HCC1937 [27] = experiment: as above
Protocol: as §2

HDQ-P1 [28] = experiment: as above
Protocol: as §2

Hs578T [29] = experiment: as above
Protocol: as §2

MCF-10A [30] = experiment: as above
Protocol: as §2

MDA-MB-231 [31] = experiment: as above
Protocol: as §2

MDA-MB-436 [32] = experiment: as above
Protocol: as §2

MDA-MB-453 [33] = experiment: as above
Protocol: as §2

MDA-MB-468 [34] = experiment: as above
Protocol: as §2

MFM-223 [35] = experiment: as above
Protocol: as §2

SK-BR-3 = experiment: as above
Protocol: as §2

CAL-148 [36] = experiment: normalised response (% of control), CellTox Green; higher = less cell death (100 = DMSO, 0 = benzethonium chloride kill control)
Procedure, shortened: as §1

| Structure (SMILES) | normalised response (BT-474 [1]) [%] | normalised response (BT-549 [2]) [%] | normalised response (CAL-120 [3]) [%] | normalised response (CAL-51 [4]) [%] | normalised response (CAL-85-1 [5]) [%] | normalised response (DU-4475 [6]) [%] | normalised response (HCC1143 [7]) [%] | normalised response (HCC1599 [8]) [%] | normalised response (HCC1937 [9]) [%] | normalised response (HDQ-P1 [10]) [%] | normalised response (Hs578T [11]) [%] | normalised response (MCF-10A [12]) [%] | normalised response (MDA-MB-231 [13]) [%] | normalised response (MDA-MB-436 [14]) [%] | normalised response (MDA-MB-453 [15]) [%] | normalised response (MDA-MB-468 [16]) [%] | normalised response (MFM-223 [17]) [%] | normalised response (BT-474 [18]) [%] | normalised response (BT-549 [19]) [%] | normalised response (CAL-120 [20]) [%] | normalised response (CAL-148 [21]) [%] | normalised response (CAL-51 [22]) [%] | normalised response (CAL-85-1 [23]) [%] | normalised response (DU-4475 [24]) [%] | normalised response (HCC1143 [25]) [%] | normalised response (HCC1599 [26]) [%] | normalised response (HCC1937 [27]) [%] | normalised response (HDQ-P1 [28]) [%] | normalised response (Hs578T [29]) [%] | normalised response (MCF-10A [30]) [%] | normalised response (MDA-MB-231 [31]) [%] | normalised response (MDA-MB-436 [32]) [%] | normalised response (MDA-MB-453 [33]) [%] | normalised response (MDA-MB-468 [34]) [%] | normalised response (MFM-223 [35]) [%] | normalised response (SK-BR-3) [%] | normalised response (CAL-148 [36]) [%] |
| --- | --- | --- | --- | --- | --- | --- | --- | --- | --- | --- | --- | --- | --- | --- | --- | --- | --- | --- | --- | --- | --- | --- | --- | --- | --- | --- | --- | --- | --- | --- | --- | --- | --- | --- | --- | --- | --- |
| O=NN(CCCl)C(=O)NC1CCCCC1 [Lomustine] (100 nM) | 101 | 77.1 | 102 | 109 | 113 | 103 | 104 | 101 | 96.5 | 96.1 | 102 | 103 | 110 | 108 | 106 | 103 | 105 | 104 | 103 | 97.7 | 91.5 | 104 | 95.6 | 107 | 104 | 90.1 | 89.4 | 104 | 99.6 | 98.4 | 99.4 | 101 | 101 | 96.1 | 110 | 102 |  |
| N[C@@H](Cc1ccc(N(CCCl)CCCl)cc1)C(=O)O [Melphalan] (125 nM) | 102 | 103 | 101 | 75.1 | 104 | 107 | 102 | 88.9 | 99.1 | 108 |  | 98.4 | 50.5 | 103 | 76.5 | 87.3 | 96.1 | 91.5 | 100 | 108 | 78.3 | 67.5 | 105 | 92.7 | 90.2 | 104 | 83.4 | 90.1 | 93.1 | 103 | 83.3 | 98.1 | 79.2 | 75.4 | 91.5 | 84.8 | 89.5 |
| C[C@]12C=CC(=O)C=C1CC[C@@H]1[C@@H]2C(=O)C[C@@]2(C)[C@H]1CC[C@]2(O)C(=O)CO [Prednisone] (100 nM) | 103 | 96.7 | 99.5 | 101 | 104 | 103 | 119 | 105 |  |  | 111 | 85.8 |  | 92.4 | 107 | 126 | 78.5 | 107 | 99.8 | 103 | 117 | 68.4 | 103 | 101 | 105 | 133 | 101 | 101 | 101 | 109 | 107 | 101 | 113 | 99.3 | 102 | 104 | 64.5 |
| CO[C@H]1C[C@@H]2CC[C@@H](C)[C@@](O)(O2)C(=O)C(=O)N2CCCC[C@H]2C(=O)O[C@H]([C@H](C)C[C@@H]2CC[C@@H](O)[C@H](OC)C2)CC(=O)[C@H](C)/C=C(\C)[C@@H](O)[C@@H](OC)C(=O)[C@H](C)C[C@H](C)/C=C/C=C/C=C/1C [Sirolimus] (1 nM) | 102 | 78.5 | 97.4 | 107 | 105 | 105 | 78.7 | 94.8 |  | 97.1 |  | 91.9 | 109 | 79.2 | 109 | 119 | 92.6 | 90.5 | 83.5 | 98 | 94.2 | 90.1 | 78.4 | 98.7 | 92.5 | 103 | 85.6 | 102 | 88.2 | 112 | 101 | 92.4 | 93.7 | 71.1 | 96.5 | 95.4 | 103 |
